These results are taken from US4683227A, “Antibiotic derivatives of 7β-[2-(thiazol-4-yl)acetamide]-3-chloro-3-cephem-4-carboxylic acids and compositions and method of use thereof” (Eli Lilly and Company, priority 1985, dated 1987).

A short description of series [1]: Oral bioavailability in dogs. In kind it is in vivo. The note with it: female mongrel dogs; oral; calculated with the above-described formulae.
The nature of series [2]: Peroral bioavailability in mice (oral vs subcutaneous dosage). The format is in vivo, mice (Cox Male Standard Mice, Lai:COX (Standard) BR). The note with it: 20 mg/kg. An excerpt:
Cox Male Standard Mice, Lai:COX (Standard) BR were housed overnight in a wire-bottom cage with free access to water and liquid diet. The result was a gastro-intestinal tract free of solids, yet without the nutritional shock and coprophagy that often accompanies overnight starvation of rodents. After dosing, the mice were housed individually in ventilated wide-mouth jars containing a layer of buffer beneath an elevated wire screen floor. At intervals after dosing, mice were removed from the jars and heparinized blood, stomach, and small intestine were removed from the animals. The urinary bladder was removed and combined with the urine collected in the buffer in the bottom of the jars. Urine, washings from the stomach and small intestine, and plasma prepared from blood samples were assayed for antibiotic activity. The test procedure used is a modification of the test procedure described by W. E. Wright, et al., J. Antibiotics, 32:1155 (1979).
Dose solutions were prepared in saline at 2 mg/ml for subcutaneous or oral administration. In all cases the compounds were administered to the mice at 20 mg/kg on an equal weight basis.
The biological activity of the samples was determined by a conventional agar well procedure using Bacillus subtilis ATCC 6633 as the test organism.
Peroral bioavailability (BA) of the test compounds in mice can be determined either by comparison of the area under the plasma curves (AUC) after oral or subcutaneous dosage, or by comparison of the urinary excretion of the dose after oral and subcutaneous dosage. Calculations of BA by either method are made with the following formulae: [formula]

Series [3] deals with Staphylococcus epidermidis 222. The experiment in a line: Minimum inhibitory concentration, standard agar dilution method. The format is cell-based. An excerpt: (§1) The method of this invention is useful in treating infections caused by a variety of microorganisms pathogenic to man and animals. […] The concentrations were obtained by the standard agar dilution method.
Series [4] deals with Streptococcus pyogenes C203. The description is as above. In kind it is cell-based.
Source text: as §1

Series [5] relates to Staphylococcus aureus S13E. The series is described as above. The conditions noted are these: Staphylococcus aureus, S13E, read-out: Minimum Inhibitory Concentration. The format is cell-based.
Source text: as §1

The subject of series [6] is Staphylococcus aureus X400. The description is as above. The format is cell-based. The note with it: Staphylococcus aureus X400; agar dilution; read-out: Minimum Inhibitory Concentration.
Source text: as §1

The subject of series [7] is Streptococcus sp. group D 2041. The series is described as above. The conditions noted are these: Streptococcus sp. group D 2041; agar dilution; read-out: Minimum Inhibitory Concentration. The format is cell-based.
Source text: as §1

The subject of series [8] is Klebsiella pneumoniae X68. The series is described as above. In kind it is cell-based.
Source text: as §1

Series [9] concerns Staphylococcus epidermidis Epil. The description is as above. In kind it is cell-based.
Source text: as §1

Series [10] has as its system Staphylococcus aureus X1.1. The series is described as above. In kind it is cell-based.
Source text: as §1

The test system of series [11] is Haemophilus influenzae 76. Described as above. The format is cell-based.
Source text: as §1

For series [12], the system named is Klebsiella pneumoniae KAE. The description is as above. The note with it: Klebsiella pneumoniae KAE; agar dilution; read-out: Minimum Inhibitory Concentration. The format is cell-based.
Source text: as §1

A further series relates to Escherichia coli EC14. Described as above. The format is cell-based.
Source text: as §1

The test system of series [13] is Haemophilus influenzae C.L. The description is as above. The format is cell-based.
Source text: as §1

The next series deals with Escherichia coli N10. Described as above. The format is cell-based.
Source text: as §1

Series [14] concerns Streptococcus sp. group D X66. Described as above. The format is cell-based. The conditions noted are these: Streptococcus sp. group D X66; agar dilution; read-out: Minimum Inhibitory Concentration.
Source text: as §1

The test system of the next series is Escherichia coli TEM. Described as above. The format is cell-based.
Source text: as §1

For series [15], the system named is Streptococcus pneumoniae PARK I. Described as above. In kind it is cell-based.
Source text: as §1

The test system of series [16] is Staphylococcus aureus V41. The series is described as above. The conditions noted are these: Staphylococcus aureus V41; agar dilution; read-out: Minimum Inhibitory Concentration. In kind it is cell-based.
Source text: as §1

Series [17] deals with Klebsiella pneumoniae X26. Described as above. In kind it is cell-based.
Source text: as §1

The conditions of series [18]: in vivo, po; cited from earlier work.

SMILES strings stand for the structures. ≈ marks a conversion by molar mass, not a printed value.

In the case of `Nc1nc(CC(=O)N[C@@H]2C(=O)N3C(C(=O)O)=C(Cl)CS[C@H]23)cs1` [Compound 2, 7β-[2-(2-Aminothiazol-4-yl)acetamido]-3-chloro-3-cephem-4-carboxylic acid], the bioavailability in series [1] is 28%. Further, in series [2] (area under plasma curves after oral vs subcutaneous dosage), the “Oral Bioavailability % BA (AUC)” value was determined as 62%. Besides, in series [2] (urinary excretion after oral vs subcutaneous dosage), the “Oral Bioavailability % BA (URINE)” value was determined as 64%. Besides, the MIC in series [3] was 1 µg/mL (≈ 2.67 µM); in series [4], 0.06 µg/mL (≈ 0.16 µM); in [5], 32 µg/mL (≈ 85.4 µM); in series [6] it was more than 128 µg/mL; in series [7] it was 32 µg/mL (≈ 85.4 µM); in [8], 0.5 µg/mL (≈ 1.33 µM). Moreover, the MIC in series [9] amounted to 4 µg/mL (≈ 10.7 µM); in series [10], 1 µg/mL (≈ 2.67 µM); in series [11] it was 0.5 µg/mL (≈ 1.33 µM); in series [12], 16 µg/mL (≈ 42.7 µM); against Escherichia coli EC14 it was 1 µg/mL (≈ 2.67 µM); in series [13], 0.5 µg/mL (≈ 1.33 µM). The MIC in the series with Escherichia coli N10 is 4 µg/mL (≈ 10.7 µM); in [14], more than 128 µg/mL; in the series with Escherichia coli TEM, 2 µg/mL (≈ 5.34 µM); in series [15], 0.5 µg/mL (≈ 1.33 µM); in [16], 32 µg/mL (≈ 85.4 µM); in [17], 0.25 µg/mL (≈ 0.667 µM).
Consider `N[C@@H](C(=O)N[C@@H]1C(=O)N2C(C(=O)O)=C(Cl)CS[C@H]12)c1ccccc1` [cefaclor], for which the “absorption from the gastrointestinal tract” value in [18] was “high absorption”.
With `CC1=C(C(=O)O)N2C(=O)[C@@H](NC(=O)[C@H](N)C3=CCC=CC3)[C@H]2SC1` [cephradine], in [18], the “absorption from the gastrointestinal tract” value was “high absorption”.
